# In patent US11006626B2, “Compounds for protection of cells” (Sulfateq B.V., priority 2012, dated 2021):
# Experiments:
# Type in all cases: cell-based
# [1] = test system: Human Embryo Kidney (HEK) 293 cells; test: Hypothermia/rewarming injury of HEK cells, trypan blue viability count
# blood platelets = test: Cold storage of PRP blood platelets, aggregation of thrombocytes after storage; design: key: − means that most of the thrombocytes were aggregated; a + indicates that a few cells were still viable but some cells aggregated; a ++ indicates that almost all cells were viable; conditions: 30 mM; PRP platelets stored at 4° C.; 264 hours
# Method: PRP platelets were harvested and 2.1 ml was suspended in Poly Propylene tubes of 5 ml, closed with a stop.
# Several compounds according to the invention were added to the blood platelets directly after preparing the PRP plasma and incubated during 10 minutes at 37° C. or 30 minutes at room temperature. The blood platelets with the compound were then stored at 4° C.
# A control was stored under shaking conditions at room temperature. Another control was stored at 4° C. without the addition of a compound.
# (§1) A sample was taken out of each tube after 264 hours after addition of the compound and tested as follows: • The color and coagulation properties were visually analysed. • The thrombocyte cells that survived were counted and it was evaluated whether the thrombocytes were aggregated. • It was evaluated if the thrombocytes still were able to function after stimulation by the addition of ADP or under influence of collagen in a 96 well plate. • The adhesion was evaluated, meaning the ability of the platelets to bind collagen in a 6 well plate preincubated with collagen. • Via an ELISA assay, it was evaluated whether thromboxane was secreted from the platelets. Thromboxane facilitates aggregation and is produced by activated blood platelets.
# Table 3 provides an overview of the results of the addition of the compounds to the blood platelets and evaluates the aggregation of the thrombocytes after addition of the compound according to the invention and cooling until 4° C.
# PRP platelets [2] = test: PRP platelets stored with Sul 136, aggregation after stimulation with collagen; conditions: 10 mM
# Method: as §1, with “A sample was taken out of each tube after 264 hours after addition of the compound and tested as follows:” left out
# (§2) (+means that the cells show aggregation, ++means strong aggregation, these platelets can thus be activated upon stimulation, −means no aggregation upon stimulation)
# PRP platelets [3] = test: as above; design: key: +means that the cells show aggregation and can thus be activated upon stimulation; −means no aggregation upon stimulation
# Method: as §1, with “A sample was taken out of each tube after 264 hours after addition of the compound and tested as follows:” left out
# as §2
# PRP platelets [4] = test: as above; design: key: +means that the cells show aggregation; ++means strong aggregation, these platelets can thus be activated upon stimulation; −means no aggregation upon stimulation
# Method: as §1, with “A sample was taken out of each tube after 264 hours after addition of the compound and tested as follows:” left out
# as §2
compound,measurement,setting,value
"Cc1c(C)c2c(c(C)c1O)CCC(C)(C(=O)N1CCN(CC(=O)O)CC1)O2 (racemic) [SUL - 136, 2-(4-(6-hydroxy-2,5,7,8-tetramethylchroman-2-carbonyl)piperazin-1-yl)acetic acid]",viability at 0.01 µM,"[1]; Homo sapiens, HEK293, 24 h, 10 nM, 24 h at 4° C., 24 h rewarming, read-out: % cells that survived",99.6%
same,viability at 0.1 µM,"[1]; Homo sapiens, HEK293, 24 h, 100 nM, 24 h at 4° C., 24 h rewarming, read-out: % cells that survived",100%
same,viability at 1 µM,"[1]; Homo sapiens, HEK293, 24 h, 1 μM, 24 h at 4° C., 24 h rewarming, read-out: % cells that survived",98.4%
same,viability at 10 µM,"[1]; Homo sapiens, HEK293, 24 h, 10 μM, 24 h at 4° C., 24 h rewarming, read-out: % cells that survived",99.5%
same,viability at 100 µM,"[1]; Homo sapiens, HEK293, 24 h, 100 μM, 24 h at 4° C., 24 h rewarming, read-out: % cells that survived",99.3%
same,viability at 1000 µM,"[1]; Homo sapiens, HEK293, 24 h, 1 mM, 24 h at 4° C., 24 h rewarming, read-out: % cells that survived",100%
same,"% cells that survived, Mean",[1]; mean over the tested concentrations,99%
same,Aggregation of blood platelets after storage,blood platelets,+
same,activity after stimulation with collagen,PRP platelets [2],showed still activity
same,aggregation of the PRP platelets after stimulation with collagen,"PRP platelets [3]; 10 min 0.001 mM, 24 h",−
same,aggregation of the PRP platelets after stimulation with collagen,"PRP platelets [3]; 10 min 0.001 mM, 48 h",−
same,aggregation of the PRP platelets after stimulation with collagen,"PRP platelets [3]; 10 min 0.001 mM, 72 h",−
same,aggregation of the PRP platelets after stimulation with collagen,"PRP platelets [3]; 10 min 0.001 mM, 216 h",−
same,aggregation of the PRP platelets after stimulation with collagen,"PRP platelets [3]; 10 min 0.01 mM, 24 h",−
same,aggregation of the PRP platelets after stimulation with collagen,"PRP platelets [3]; 10 min 0.01 mM, 48 h",−
same,aggregation of the PRP platelets after stimulation with collagen,"PRP platelets [3]; 10 min 0.01 mM, 72 h",−
same,aggregation of the PRP platelets after stimulation with collagen,"PRP platelets [3]; 10 min 0.01 mM, 216 h",−
same,aggregation of the PRP platelets after stimulation with collagen,"PRP platelets [3]; 10 min 0.1 mM, 48 h",−
same,aggregation of the PRP platelets after stimulation with collagen,"PRP platelets [3]; 10 min 0.1 mM, 72 h",−
same,aggregation of the PRP platelets after stimulation with collagen,"PRP platelets [3]; 10 min 0.1 mM, 216 h",−
same,aggregation of the PRP platelets after stimulation with collagen,"PRP platelets [3]; 10 min 1 mM, 48 h",−
same,aggregation of the PRP platelets after stimulation with collagen,"PRP platelets [3]; 60 min 0.001 mM, 24 h",−
same,aggregation of the PRP platelets after stimulation with collagen,"PRP platelets [3]; 60 min 0.001 mM, 48 h",−
same,aggregation of the PRP platelets after stimulation with collagen,"PRP platelets [3]; 60 min 0.001 mM, 72 h",−
same,aggregation of the PRP platelets after stimulation with collagen,"PRP platelets [3]; 60 min 0.001 mM, 216 h",−
same,aggregation of the PRP platelets after stimulation with collagen,"PRP platelets [3]; 60 min 0.01 mM, 24 h",−
same,aggregation of the PRP platelets after stimulation with collagen,"PRP platelets [3]; 60 min 0.01 mM, 48 h",−
same,aggregation of the PRP platelets after stimulation with collagen,"PRP platelets [3]; 60 min 0.01 mM, 72 h",−
same,aggregation of the PRP platelets after stimulation with collagen,"PRP platelets [3]; 60 min 0.01 mM, 216 h",−
same,aggregation of the PRP platelets after stimulation with collagen,"PRP platelets [3]; 60 min 0.1 mM, 24 h",−
same,aggregation of the PRP platelets after stimulation with collagen,"PRP platelets [3]; 60 min 0.1 mM, 48 h",−
same,aggregation of the PRP platelets after stimulation with collagen,"PRP platelets [3]; 60 min 0.1 mM, 72 h",−
same,aggregation of the PRP platelets after stimulation with collagen,"PRP platelets [3]; 60 min 0.1 mM, 216 h",−
same,aggregation of the PRP platelets after stimulation with collagen,"PRP platelets [3]; 60 min 1 mM, 24 h",−
same,aggregation of the PRP platelets after stimulation with collagen,"PRP platelets [3]; 60 min 1 mM, 48 h",−
same,aggregation of the PRP platelets after stimulation with collagen,"PRP platelets [3]; 60 min 1 mM, 72 h",−
same,aggregation of the PRP platelets after stimulation with collagen,"PRP platelets [3]; 60 min 10 mM, 216 h",−
same,aggregation of the PRP platelets after stimulation with collagen,"PRP platelets [4]; 10 min 0.001 mM, 0 h",+
same,aggregation of the PRP platelets after stimulation with collagen,"PRP platelets [4]; 10 min 0.01 mM, 0 h",+
same,aggregation of the PRP platelets after stimulation with collagen,"PRP platelets [4]; 10 min 0.1 mM, 0 h",+
same,aggregation of the PRP platelets after stimulation with collagen,"PRP platelets [4]; 10 min 1 mM, 0 h",+
same,aggregation of the PRP platelets after stimulation with collagen,"PRP platelets [4]; 10 min 10 mM, 0 h",++
same,aggregation of the PRP platelets after stimulation with collagen,"PRP platelets [4]; 10 min 10 mM, 24 h",++
same,aggregation of the PRP platelets after stimulation with collagen,"PRP platelets [4]; 10 min 10 mM, 48 h",++
same,aggregation of the PRP platelets after stimulation with collagen,"PRP platelets [4]; 10 min 10 mM, 72 h",++
same,aggregation of the PRP platelets after stimulation with collagen,"PRP platelets [4]; 10 min 10 mM, 216 h",++
same,aggregation of the PRP platelets after stimulation with collagen,"PRP platelets [4]; 60 min 0.001 mM, 0 h",+
same,aggregation of the PRP platelets after stimulation with collagen,"PRP platelets [4]; 60 min 0.01 mM, 0 h",+
same,aggregation of the PRP platelets after stimulation with collagen,"PRP platelets [4]; 60 min 0.1 mM, 0 h",+
same,aggregation of the PRP platelets after stimulation with collagen,"PRP platelets [4]; 60 min 1 mM, 0 h",+
same,aggregation of the PRP platelets after stimulation with collagen,"PRP platelets [4]; 60 min 10 mM, 0 h",++
same,aggregation of the PRP platelets after stimulation with collagen,"PRP platelets [4]; 60 min 10 mM, 24 h",++
same,aggregation of the PRP platelets after stimulation with collagen,"PRP platelets [4]; 60 min 10 mM, 48 h",++
same,aggregation of the PRP platelets after stimulation with collagen,"PRP platelets [4]; 60 min 10 mM, 72 h",++
